{"source": "paper PMC5754397", "about": "“Population pharmacokinetics of nintedanib, an inhibitor of tyrosine kinases, in patients with non-small cell lung cancer or idiopathic pulmonary fibrosis” (Cancer Chemotherapy and Pharmacology, 2017)", "assay": "clinical", "conditions": "human, in vivo", "procedure": "An overview of these studies is provided in Online Resource Table S1. […] Treatment continued until disease progression or intolerable toxicity. […] Treatment cycles were continued until disease progression or intolerable toxicity. […] In all four trials, dose reductions and interruptions were allowed to manage adverse events. All studies were conducted in accordance with the Declaration of Helsinki and with approval of the local ethics committees. Written informed consent was obtained from all patients before study entry. Blood sampling schema for measurement of nintedanib plasma concentrations varied. For all trials, at least two pre-dose and two post-dose blood samples were scheduled during treatment (see Online Resource Table S1). In addition, more extensive sampling was performed in the two Phase II trials. Nintedanib and BIBF 1202 plasma concentrations were analyzed by validated liquid chromatography-mass spectrometry (HPLC-MS/MS) methods. […] The population pharmacokinetic analysis was performed using non-linear mixed-effects modeling techniques (NONMEM, version VI 2.0, ICON Development Solutions, Ellicott City, Maryland, USA). The first-order conditional estimation algorithm with interaction was used. Data processing, diagnostic plots, and calculation of descriptive statistics were performed using R version 2.12.1 (http://www.rproject.org) and SAS version 9.2 (SAS Institute Inc, Cary, NC, USA). Bootstrap analysis was performed using Perl-speaks-NONMEM, version 3.5.3 [24, 25]. A sequential approach was used for population pharmacokinetic model development. […] Inter-individual variability (IIV, η) and inter-occasion variability (IOV, κ) were modeled using exponential random effect models. For testing IOV, each visit was defined as one occasion. […] Model selection was guided by change in objective function values (OFV), identifiability of parameters and precision of parameter estimates, correlation between the estimates of fixed-effect parameters, numerical stability, ability to obtain a successful COVARIANCE step, and visual inspection of basic goodness-of-fit plots. The effects of intrinsic patient factors (e.g., gender, age, body weight, ethnicity, laboratory values, and NSCLC histology) and extrinsic factors (e.g., smoking history and alcohol consumption) on pharmacokinetic parameters of nintedanib were evaluated by applying a stepwise forward inclusion/backward elimination approach. Combinations of covariates and model parameters to be tested were pre-specified based on prior knowledge, physiological plausibility, or general clinical interest (see Online Resource Table S2). Potential effects of patient population (NSCLC versus IPF) or treatment regimen (monotherapy versus combination therapy with docetaxel or pemetrexed) could not be distinguished from trials effects, and were, therefore, not re-evaluated during covariate analysis. To assess the effect of hepatic impairment on apparent total plasma clearance (CL/F) and relative bioavailability (F1), alanine transaminase (ALT), aspartate transaminase (AST), and total bilirubin (BIL) were tested individually and in combination using an adapted liver dysfunction group (LDF) composite developed for organ dysfunction studies by the Organ Dysfunction Working Group of the National Cancer Institute. In this classification, hepatic dysfunction is classified as mild (subdivided into two subgroups), moderate, or severe according to ALT, AST, and BIL levels relative to the upper limit of normal (ULN) (see Table 1). This categorization was preferred over the classical Child-Pugh classification (based on assessments of BIL, albumin, prothrombin time, encephalopathy, and ascites) commonly used to assess surgical risk in cirrhotic patients, as it has potential disadvantages for use in oncology patients. Creatinine clearance (CLCR) estimated by the Cockcroft-Gault equation [31] was used as surrogate for renal function. […]"}
{"smiles": "COC(=O)c1ccc2c(c1)NC(=O)/C2=C(\\Nc1ccc(N(C)C(=O)CN2CCN(C)CC2)cc1)c1ccccc1", "note": "[nintedanib]", "values": [{"measurement": "ALAG", "value": "0.470 (–) h"}, {"measurement": "CL/F (θCL)", "value": "875 (–) L/h"}, {"measurement": "F1 higher in NSCLC phase II and LUME-Lung 2 trials than in LUME-Lung 1 and IPF phase II trials", "value": 30, "unit": "%"}, {"measurement": "V2/F (θV2)", "value": "617 (–) L"}, {"measurement": "V2 when applying non-flip-flop kinetics in the final model", "value": "10,700 L"}, {"measurement": "Vd/F", "value": 465, "unit": "L"}, {"measurement": "absorption-rate constant, Phase II trials versus Phase III trials", "value": 2, "unit": "fold"}, {"measurement": "change in exposure by any individual covariate at extreme values relative to a typical patient", "value": "≤ 33", "unit": "%"}, {"measurement": "covariate effect on F1, θAge", "value": "0.00942 (–)"}, {"measurement": "difference in nintedanib pharmacokinetics for Black patients, alcohol consumption or UGT1A1 polymorphism status", "value": "no substantial difference"}, {"measurement": "dose linearity", "value": "No major deviation from dose linearity"}, {"measurement": "impact of gender, patient population, NSCLC histology, therapy regimen, ECOG status, liver metastases, mild or moderate renal impairment, LDH on nintedanib pharmacokinetics", "value": "no statistically significant impact"}, {"measurement": "increase of F1, mild 1 liver dysfunction category", "value": 8, "unit": "%"}, {"measurement": "increase of F1, mild 2 liver dysfunction category", "value": 13, "unit": "%"}, {"measurement": "ka (θka)", "value": "0.0391 (–) h^-1"}, {"measurement": "ka (θka), first-order absorption-rate constant", "value": "0.0376 (7.77) h^−1"}, {"measurement": "ka higher in phase II NSCLC and IPF trials than in the two NSCLC Phase III trials", "value": 120, "unit": "%"}, {"measurement": "ka when applying non-flip-flop kinetics in the final model", "value": 1.64, "unit": "h⁻¹"}, {"measurement": "ka, absorption rate of a typical patient", "value": 0.0827, "unit": "h⁻¹"}, {"measurement": "lag time", "value": 25, "unit": "min"}, {"measurement": "percentage change in AUCτ,ss: Chinese/Taiwanese/Indian", "value": "↑33%"}, {"measurement": "percentage change in AUCτ,ss: Korean", "value": "↓22%"}, {"measurement": "percentage change in AUCτ,ss: age 45 years (5th percentile)", "value": "↓16%"}, {"measurement": "percentage change in AUCτ,ss: age 76 years (95th percentile)", "value": "↑13%"}, {"measurement": "percentage change in AUCτ,ss: body weight 50 kg (5th percentile)", "value": "↑25%"}, {"measurement": "percentage change in AUCτ,ss: body weight 100 kg (95th percentile)", "value": "↓19%"}, {"measurement": "percentage change in AUCτ,ss: current smoker", "value": "Current smoker: ↓21%"}, {"measurement": "ratios of AUCτ,ss for each factor other than ethnic origin", "value": "80–125%"}, {"measurement": "half-life", "setting": "absorption half-life", "value": 8.38, "unit": "h"}, {"measurement": "half-life", "setting": "elimination half-life (population mean)", "value": 0.36, "unit": "h"}]}
